The values below come from patent publication US20130324595A1, “C-GLUCOSIDIC ELLAGITANNIN COMPOUNDS FOR USE FOR ALTERING THE SUPRAMOLECULAR ARRANGEMENT OF ACTIN AND FOR THE TREATMENT OF OSTEOPOROSIS, CANCER, BACTERIAL INFECTION AND VIRAL INFECTION” (priority 2011, published 2013).

One data set concerns actin (G-actin/F-actin). In words: in vitro actin polymerization, F-actin (pellet) versus G-actin (supernatant) at steady state. The settings on record: for G-actin/F-actin ratio at steady state: vescalagin 100 μM, cytochalasin D 4 μM, phalloidin 2 μM. The class given is biochemical. The method, then:
(§1) FIG. 4. A. Actin polymerization at its steady state in both permissive and non-permissive conditions was continued (30 min) in the presence of either alexa633-phalloidin or vescalagin-FITC. […] B. This effect is dose-dependent. C.
In the same way, quantifying the amount of F-actin (pellet) versus that of G-actin (supernatant) at the steady state was achieved by Western blot after high-speed centrifugation of samples treated with either vescalagin (100 μM), cytochalasin D (4 μM) or phalloidin (2 μM). […] The same effect was observed when using the vescalagin-FITC conjugate (FIG. 4C).

In data set [1] the test system is F-actin. Put plainly: phalloidin binding to vescalagin-decorated F-actin (binding site).
Data set [2] deals with BAEc. In words: cellular morphology and mitosis, light microscopy. The class given is cell-based, bovine. The text has this: (§2) Vescalagin-induced dissolution of stress fibers affected cellular morphology and, eventually, viability. […] Functional consequences on cell behavior translated into impaired endothelial cell wound repair capacity. […] Overall, this ensemble of experimental data illustrates the rapid and sustained effects of vescalagin on cell behavior.

The test system of data set [3] is actin cytoskeleton in bovine aortic endothelial cells (BAEc). In words: effect on the actin cytoskeleton (stress fibers) in living BAEc. Type of data set: cell-based. The text has this:
The inventors' initial interest in studying these C-glucosidic ellagitannins stems from the premise that the highly pre-organized medium-sized ring-containing multiple-phenol array featured by such natural products should be structurally well-suited to interfere with the construction of protein-made cellular architectures, on top of the list of which are actin filaments and microtubules. The inventors thus decided to probe the latter hypothesis by first examining the effect of a selection of four C-glucosidic ellagitannins on the actin cytoskeleton in living cells. […] The selected compounds were the two most abundant C-glucosidic ellagitannins found in the heartwood of oak species, vescalagin and its C-1 epimer castalagin, and their corresponding two minor congeners, vescalin and castalin, both lacking the hexahydroxydiphenoyl (HHDP) unit at positions 4 and 6 of the glucose core (FIG. 1). The inventors used bovine aortic endothelial cells (BAEc), a well-characterized type of primary cells. Any of the four ellagitannins used at 50 μM rapidly provoked the disappearance of the internal stress fiber network observed in control cells.

In data set [4] the test system is mechanically injured endothelium. Put plainly: endothelial cell wound repair. Type of data set: cell-based, bovine.
Description: as §2

The next data set concerns actin cytoskeleton. Put plainly: reversibility of cytoskeletal alterations by washing out. The class given is cell-based. The text has this: The vescalagin-induced F-actin disrupting effect seen in BAEc was also observed in fibroblast cells (baby hamster kidney cells, BHK), which also express β-actin as the main actin isoform, as well as in smooth muscle cells (A7r5), which in contrast predominantly express α-actin.
It rapidly enters cells, and this despite its high hydrophilicity. Its dose-dependent effects on the actin cytoskeleton relies on its interaction with F-actin without any perturbation of the microtubule network. […] The results found by the inventors are consistent with a mode of action through which the binding of vescalagin occurs along the length of the actin filament, probably at the protein-protein interface of the so-polymerized actin supramolecular association. The presence of two analogous polyhydroxylated arene motifs (i.e., the NHTP and HHDP units, see FIG. 1) likely constitutes the key structural feature that enables vescalagin to wind F-actin into balls by engaging it through multiple intra- and/or intermolecular contacts. […] Future studies will be devoted to the elucidation of the vescalagin-actin interaction at the molecular level and to the comparative evaluation of the anti-actin effects of the other C-glucosidic ellagitannins initially screened herein. Moreover, the SPR method the inventors developed using a biotinylated vescalagin conjugate to discriminate the binding of vescalagin to F- versus G-actin confirms the value of the technique for the study of polyphenol-protein interactions. Finally, the inventors have to recall that oak-derived C-glucosidic ellagitannins, including vescalagin, are present in wines as a result of their aging in oak-made barrels.

In a further data set the test system is microtubule network. In words: alteration of the microtubule network in treated cells. The class given is cell-based.
In data set [5] the test system is podosomes in bovine aortic endothelial cells (BAEc). Put plainly: podosome formation in TGF-β stimulated BAEc. Type of data set: cell-based. Particulars: for inhibition of podosome formation: compound added from the beginning of the TGF-β stimulation (24 h) versus last hour. The protocol: FIG. 7. Dose responses of endothelial cells following vescalagin or vescalin treatment. BAEc were incubated for 24 hours with TGF-β (which stimulates formation of podosomes), and different concentrations of vescalagin or vescalin were added either from the beginning of the TGF-β stimulation, or during the last hour of stimulation. Cells were then fixed and treated for immunofluorescence analysis. Podosomes were visualized by double staining using phalloidin (a F-actin marker) and cortactin (a podosome marker). The percentage of total cells showing podosomes was then quantified and compared to the control (cells incubated with TGF-β only). A. BAEc were stimulated for 24 hours with TGF-β, and vescalagin or vescalin was added during the last hour of stimulation. B. BAEc were stimulated for 24 hours with TGF-β, and vescalagin or vescalin was added from the beginning of the TGF-β stimulation.
In this assay, bovine aortic endothelial cells (BAEc) were used. These cells form podosomes following a few hours of incubation with TGF-β. Cells were fixed after 24 hours of stimulation. Two protocols were tested. In the first protocol, cells were stimulated for 24 hours with TGF-β, and vescalagin or vescalin was added during the last hour of stimulation (FIG. 7A). In the second protocol, cells were stimulated for 24 hours with TGF-β, and vescalagin or vescalin was added from the beginning of the TGF-β stimulation (FIG. 7B). In both cases, cells were then fixed and treated for immunofluorescence analysis. Podosomes were visualized by double staining using phalloidin (a F-actin marker) and cortactin (a podosome marker). The percentage of total cells showing podosomes was then quantified and compared to the control (cells incubated with TGF-β only) (FIGS. 7A and 7B).

In another data set the test system is actin-GFP in BAEc. In words: live imaging and FRAP on actin-GFP expressing BAEc. The class given is cell-based, bovine. Particulars: 100 μM. The protocol: FIG. 2. Live imaging of BAEc expressing actin-GFP were subjected to FRAP in the absence or presence of vescalagin (100 μM). A. A boxed region (200×100 pixel square) was photobleached [before (t 0″), immediately after (t 38″) and after photobleaching (t 98″)]; and normalized fluorescence intensity in the boxed region is shown for the entire duration of the FRAP experiment. […] B. Quantitation of the results showing the immobile fraction as calculated from the difference between pre- and post-photobleaching intensities (n=6).
Destabilization of the stress fibers was visualised by the progressive loss of filamentous staining, concomitantly with cell retraction as observed in phase contrast. Noticeably, thick F-actin bundles were maintained. To detect and unveil the internal dynamics of these apparently immobile F-actin bundles, the inventors performed a fluorescence recovery after photobleaching (FRAP) assay on actin-GFP expressing BAEc in the absence or presence of vescalagin (FIG. 2). […] From these experiments, the inventors conclude that vescalagin affects both thin and thick actin fibers, F-actin bundles made of packed actin filaments being less vulnerable to the action of vescalagin than the single filament dendritic meshwork at the cell periphery.

The test system of data set [6] is BAEc. In words: propidium iodide (PI) staining, cytotoxicity. Type of data set: cell-based, bovine. The settings on record: for cytotoxicity by PI staining: 50 μM.
Description: as §2

Data set [7] has as its system osteoclast. The settings on record: cited from earlier work.
In a further data set the test system is bone resorption. The settings on record: by inhibiting calcium release; cited from earlier work.
The test system of data set [8] is osteoclast. The settings on record: cited from earlier work. The source holds these as a separate data set.
The test system of data set [9] is F-actin. Put plainly: in vitro actin polymerization, high-speed centrifugation, stained pellet. Type of data set: binding. The settings on record: 30 min at steady state. The protocol:
as §1
To explore whether or not the interaction between vescalagin and actin was direct, the inventors set up an in vitro assay based on actin polymerization from a solution of Ca^2+-actin-ATP monomers. Spontaneous polymerization occurs when Ca^2+ is replaced by Mg^2+ provided by the F-actin buffer. The inventors performed high-speed centrifugation of the samples to separate the neo-formed polymers from the monomers to discriminate binding of vescalagin to either F-actin, G-actin or both. To visualize these presumptive molecular associations, the inventors used again the vescalagin-bearing fluoprobe and a fluorescent Alexa633-phalloidin to stain F-actin. Actin polymerization was carried out until it reached its steady state in both permissive and non-permissive conditions (i.e., in the presence or absence of Mg^2+-containing F-buffer). The experiment was then continued for 30 min in the presence of either vescalagin-FITC conjugate or Alexa633-phalloidin, and the formation of actin polymers was then assessed by high-speed centrifugation.

Entries after “also recorded” stand apart in the source; their conditions may differ. *1 amine or outer side, *2 acyl side, *3 side chain or, on linkers, in order; H or OH if unused. Where a SMILES comes first, the peptide text is derived from it. Bridges are numbered along the chain shown (N, C = ends). [ ]: non-standard residue; d: D form. Trp(2-yl) = O=C([C@H](Cc1c([*:3])[nH]c2ccccc12)N[*:1])[*:2]; Leu(4R-OH,5-OH) = C[C@](O)(CO)C[C@H](N)C(=O)O; cisHyp = O=C(O)[C@@H]1C[C@H](O)CN1

For the molecule `C[C@@H]1NC(=O)[C@H](C[C@@](C)(O)CO)NC(=O)[C@@H]2Cc3c([nH]c4ccccc34)SC[C@H](NC(=O)[C@@H]([C@H](C)O)NC1=O)C(=O)N1C[C@@H](O)C[C@H]1C(=O)N[C@@H](C)C(=O)N2` [phalloidin, reference compound] (cyclo(A[dT]C[cisHyp]A[Trp(2-yl)][Leu(4R-OH,5-OH)]); thioether 3-6), the “G-actin/F-actin ratio at steady state” value in the data set on actin (G-actin/F-actin) is recorded as “marked depletion of G-actin”.
As to `O=C1OCC2OC(=O)c3cc(O)c(O)c(O)c3-c3c(O)c(O)c(O)c4c3C(=O)OC(C2OC(=O)c2cc(O)c(O)c(O)c2-c2c1cc(O)c(O)c2O)C1OC(=O)c2c-4c(O)c(O)c(O)c2C1O` (stereo not shown) [vescalagin], the “binding site on F-actin relative to phalloidin” value in the data set with F-actin [1] was “does not bind at the same site(s) as phalloidin”. The figures for the mitosis result in the data set on BAEc [2] (50 μM) and with BAEc [2] (100 μM) were “still observed” and “impaired”, respectively. In the data set on BAEc [2] (range of concentrations and incubation times applied), the cell morphology result is on record as “changed their morphology from a well spread to a more retracted appearance”. In data set [3] (four C-glucosidic ellagitannins), the “relative activity within the series evaluated” value is “most active compound of the series”. The “serum-stimulated healing of mechanically injured endothelium” value in [4] (20 μM) is on record as “reduced by about half”. Further, in data set [4] (100 μM, 6 h), the cell viability entry is recorded as “still compatible with the maintenance of cell viability”. The “repopulation of the denudated area” value in data set [4] (100 μM, 6 h) is listed as “remained virtually unpopulated”. For the same molecule, the “reversibility of actin cytoskeleton alterations by washing” value was “reversible by washing” with actin cytoskeleton (treatment 1 hour, 100 μM) and “reversible by washing” in the data set with actin cytoskeleton (treatment 24 hours, 50 μM). Also, the “reversal of cytoskeletal alterations by washing out with fresh medium” value in the data set on actin cytoskeleton (within 1 h) is on record as “completely reversed”. Besides, in the data set with actin cytoskeleton (within 1 h of treatment, up to 100 μM), the “reversibility of effects on the actin cytoskeleton” value is “fully reversible”. Further, the “alteration of the microtubule network” value with microtubule network is on record as “no alteration of the microtubule network”. Also, the “dose dependence of the G-actin depletion” value in the data set with actin (G-actin/F-actin) is on record as “dose-dependent manner”. In addition, the “G-actin/F-actin ratio at steady state” value in the data set on actin (G-actin/F-actin) is “marked depletion of G-actin”. Also, the “inhibition of podosome formation (percentage of cells showing podosomes)” value in data set [5] (24 h TGF-β, vescalagin versus vescalin) is listed as “stronger inhibitor activity than vescalin”. For the same molecule, the “inhibition of podosome formation” value in data set [5] is recorded as “less pronounced effects”. For the same molecule, the “actin-GFP distribution, live imaging” value in the data set on actin-GFP in BAEc is reported as “immediate alteration of actin-GFP distribution at cell margin”. The “immobile fraction of actin (FRAP)” value in the data set with actin-GFP in BAEc (n=6) was “increases the immobile fraction of actin”. Also, the “cytotoxicity by PI staining” value in the data set with BAEc [6] (6 h) and in the data set with BAEc [6] (24 h) was “no cytotoxicity” throughout. Further, in the data set on BAEc [6] (100 μM, 24 h), the “cell death (apoptotic nuclei)” value is recorded as “irreversible commitment to cell death; also recorded: presence of apoptotic nuclei”.
Take `O=C1O[C@H](CO)[C@@H](O)[C@@H]2OC(=O)c3c(c(O)c(O)c(O)c3-c3c(O)c(O)c(O)c4c3C(=O)O[C@H]2[C@@H]4O)-c2c1cc(O)c(O)c2O` [vescalin]: the “inhibition of podosome formation” value in data set [5] is recorded as “less pronounced effects”.
For roburin C, the “inhibition of osteoclast differentiation and function” value in the data set with osteoclast [7] is given as “highest potency”.
With `C=C1[C@@H](C)[C@H]2[C@H](Cc3ccccc3)NC(=O)[C@]23[C@H](OC(C)=O)/C=C/[C@@](C)(O)C(=O)[C@@H](C)C/C=C/[C@H]3[C@@H]1O` [cytochalasin D, reference compound], the “effect on actin configuration (stress fibers)” value in data set [3] (BAEc, cytochalasin D comparison) was “also effective”. For the same molecule, the “alteration of the microtubule network” value with microtubule network is “no alteration of the microtubule network”.
As to `O=C(OC1C(OC(=O)c2cc(O)c(O)c(O)c2Oc2cc3c(c(O)c2O)-c2c(cc(O)c(O)c2O)C(=O)OC(C2OC(=O)c4cc(O)c(O)c(O)c4-c4c(cc(O)c(O)c4O)C(=O)OCC2O)C(C(O)c2c(O)cc4c(c2O)CC(O)C(c2ccc(O)c(O)c2)O4)OC3=O)C(O)OC2COC(=O)c3cc(O)c(O)c(O)c3-c3c(cc(O)c(O)c3O)C(=O)OC21)c1cc(O)c(O)c(O)c1` (stereo not shown) [camelliatannin D], the bone resorption entry with bone resorption is given as “potentially inhibits bone resorption”.
Take `O=C1O[C@H]2[C@H](O)[C@@H](OC(=O)c3cc(O)c(O)c4c3[C@@H]3C1=CC(=O)C(O)(O)C3(O)O4)[C@H](OC(=O)c1cc(O)c(O)c(O)c1)O[C@@H]2CO` (stereo partly shown) [furosin]: the “osteoclast differentiation and function” value with osteoclast [8] is reported as “inhibitory effect”.
Take roburin D: the “inhibition of osteoclast differentiation and function” value in the data set on osteoclast [7] is reported as “highest potency”.
As to fluorescein isothiocyanate [FITC], the “binding to F-actin (stained pellet after high-speed centrifugation)” value in the data set on F-actin [9] is on record as “no F-actin was detected”.
